# Measurements from ChEMBL document CHEMBL5331076, “Streptogramin A derivatives as mitochondrial translation inhibitors to suppress glioblastoma stem cell growth” (Eur J Med Chem, 2023).
# Active and inactive are the calls of the source. The rule behind the calls is not given here.
# Key:
# COMI [1] = assay: Inhibition of mitochondrial translation in human COMI cells assessed as decrease in ND3 expression level at 0.5 to 5 uM incubated for 48 hrs by immunoblotting analysis; assay type: functional, cell-based; conditions: dose 0.5-5 µM
# COMI [2] = assay: Growth inhibition of human COMI cells incubated for 48 hrs in the presence of quinupristin by Hoechst 33342/PI staining based analysis; assay type: functional
# COMI [3] = assay: Growth inhibition of human COMI cells incubated for 48 hrs by Hoechst 33342/PI staining based analysis; assay type: functional
# COMI [4] = assay: Inhibition of mitochondrial translation in human COMI cells assessed as increase in COX4 expression level at 0.5 to 5 uM incubated for 48 hrs by immunoblotting analysis; assay type: functional, cell-based; conditions: dose 0.5-5 µM
# COMI [5] = assay: Inhibition of mitochondrial translation in human COMI cells assessed as decrease in COX2 expression level at 0.5 to 5 uM incubated for 48 hrs by immunoblotting analysis; assay type: functional, cell-based; conditions: dose 0.5-5 µM
# COMI [6] = assay: Inhibition of mitochondrial translation in human COMI cells assessed as decrease in COX1 expression level at 0.5 to 5 uM incubated for 48 hrs by immunoblotting analysis; assay type: functional, cell-based; conditions: dose 0.5-5 µM
# COMI [7] = assay: Inhibition of mitochondrial translation in human COMI cells assessed as decrease in COX2 expression level incubated for 48 hrs by immunoblotting analysis; assay type: functional, cell-based
# COMI [8] = assay: Inhibition of mitochondrial translation in human COMI cells assessed as decrease in COX1 expression level incubated for 48 hrs by immunoblotting analysis; assay type: functional, cell-based
# COMI [9] = assay: Inhibition of mitochondrial translation in human COMI cells assessed as increase in COX4 expression level incubated for 48 hrs by immunoblotting analysis; assay type: functional, cell-based
# COMI [10] = assay: Inhibition of mitochondrial translation in human COMI cells assessed as decrease in ND3 expression level incubated for 48 hrs by immunoblotting analysis; assay type: functional, cell-based
Compound,inhibition (COMI [1]),GI50 (COMI [2]) [µM],GI50 (COMI [3]) [µM],inhibition (COMI [4]),inhibition (COMI [5]),inhibition (COMI [6]),inhibition (COMI [7]),inhibition (COMI [8]),inhibition (COMI [9]),inhibition (COMI [10])
CC1=C\[C@@H](O)C[C@@H](F)Cc2nc(co2)C(=O)N2CCC=C2C(=O)O[C@H](C(C)C)[C@H](C)/C=C/C(=O)NC\C=C\1,Active,5.42,4.82,Active,Active,Active,–,–,–,–
CC1=C\[C@@H](O)C[C@H](F)Cc2nc(co2)C(=O)N2CCC=C2C(=O)O[C@H](C(C)C)[C@H](C)/C=C/C(=O)NC\C=C\1,–,12.3,36.1,–,–,–,Active,Active,Active,Active
CC1=C\[C@@H](O)CC(=O)Cc2nc(co2)C(=O)N2CCC=C2C(=O)O[C@H](C(C)C)[C@H](C)/C=C/C(=O)NC\C=C\1 [VIRGINIAMYCIN FACTOR M1],–,7.25,17.1,–,–,–,–,–,–,–
CCN(CC)CCS(=O)(=O)[C@@H]1CCN2C(=O)c3coc(n3)C[C@@H](NC)C[C@H](O)/C=C(C)/C=C/CNC(=O)/C=C/[C@@H](C)[C@@H](C(C)C)OC(=O)[C@@H]12,inactive,1.32,1.56,inactive,inactive,inactive,–,–,–,–
CN[C@@H]1Cc2nc(co2)C(=O)N2CCC=C2C(=O)O[C@H](C(C)C)[C@H](C)/C=C/C(=O)NC/C=C/C(C)=C/[C@@H](O)C1,inactive,1.5,1.16,inactive,inactive,inactive,–,–,–,–
CCN(CC)CCS[C@@H]1CCN2C(=O)c3coc(n3)CC(=O)C[C@H](O)/C=C(C)/C=C/CNC(=O)/C=C/[C@@H](C)[C@@H](C(C)C)OC(=O)[C@@H]12,–,8,7.02,–,–,–,–,–,–,–
CCN(CC)CCS(=O)(=O)[C@@H]1CCN2C(=O)c3coc(n3)CC(=O)C[C@H](O)C3C(C)=CC(CNC(=O)/C=C/[C@@H](C)[C@@H](C(C)C)OC(=O)[C@@H]12)C1C(=O)NC(=O)C13 (stereo not given in full),–,14.5,> 100,–,–,–,inactive,inactive,inactive,inactive
CCN(CC)CCS(=O)(=O)[C@@H]1CCN2C(=O)c3coc(n3)CC(=O)C[C@H](O)C3C(C)=CC(CNC(=O)/C=C/[C@@H](C)[C@@H](C(C)C)OC(=O)[C@@H]12)C1C(=O)OC(=O)C13 (stereo not given in full),–,14.8,> 100,–,–,–,inactive,inactive,inactive,inactive
CN[C@H]1Cc2nc(co2)C(=O)N2CCC=C2C(=O)O[C@H](C(C)C)[C@H](C)/C=C/C(=O)NC/C=C/C(C)=C/[C@@H](O)C1,inactive,6.57,19.4,inactive,inactive,inactive,–,–,–,–
CCN(CC)CCS(=O)(=O)[C@@H]1CCN2C(=O)c3coc(n3)C[C@H](F)C[C@H](O)/C=C(C)/C=C/CNC(=O)/C=C/[C@@H](C)[C@@H](C(C)C)OC(=O)[C@@H]12,Active,5.71,6.73,Active,Active,Active,–,–,–,–
CCN(CC)CCS(=O)(=O)[C@@H]1CCN2C(=O)c3coc(n3)C[C@@H](O)C[C@H](O)/C=C(C)/C=C/CNC(=O)/C=C/[C@@H](C)[C@@H](C(C)C)OC(=O)[C@@H]12,–,5.17,18.8,–,–,–,Active,Active,Active,Active
CCN(CC)CCS(=O)(=O)[C@@H]1CCN2C(=O)c3coc(n3)C[C@H](NC)C[C@H](O)/C=C(C)/C=C/CNC(=O)/C=C/[C@@H](C)[C@@H](C(C)C)OC(=O)[C@@H]12,inactive,4.85,14.2,inactive,inactive,inactive,–,–,–,–
CC1=C\C=C\C(=O)Cc2nc(co2)C(=O)N2CCC=C2C(=O)O[C@H](C(C)C)[C@H](C)/C=C/C(=O)NC\C=C\1,–,15.6,20.5,–,–,–,–,–,–,–
CC1=C\[C@@H](O)C[C@@H](F)Cc2nc(co2)C(=O)N2CCC[C@@H]2C(=O)O[C@H](C(C)C)[C@H](C)/C=C/C(=O)NC\C=C\1,Active,5.83,7.37,Active,Active,Active,–,–,–,–
CC1=CC2CNC(=O)/C=C/[C@@H](C)[C@@H](C(C)C)OC(=O)C3=CCCN3C(=O)c3coc(n3)CC(=O)C[C@H](O)C1C1C(=O)OC(=O)C21 (stereo not given in full),–,19.6,> 100,–,–,–,inactive,inactive,inactive,inactive
CCN(CC)CCS(=O)(=O)[C@@H]1CCN2C(=O)c3coc(n3)CC(=O)/C=C/C=C(C)/C=C/CNC(=O)/C=C/[C@@H](C)[C@@H](C(C)C)OC(=O)[C@@H]12,–,9.9,10.9,–,–,–,–,–,–,–
CCN(CC)CCS(=O)(=O)[C@@H]1CCN2C(=O)c3coc(n3)C[C@H](O)C[C@H](O)/C=C(C)/C=C/CNC(=O)/C=C/[C@@H](C)[C@@H](C(C)C)OC(=O)[C@@H]12,–,7.05,37.5,–,–,–,Active,Active,Active,Active
CC1=C\[C@@H](O)C[C@H](O)Cc2nc(co2)C(=O)N2CCC=C2C(=O)O[C@H](C(C)C)[C@H](C)/C=C/C(=O)NC\C=C\1,–,8.74,52.5,–,–,–,Active,Active,Active,Active
CCN(CC)CCS(=O)(=O)[C@@H]1CCN2C(=O)c3coc(n3)C[C@@H](F)C[C@H](O)/C=C(C)/C=C/CNC(=O)/C=C/[C@@H](C)[C@@H](C(C)C)OC(=O)[C@@H]12,–,8.37,20.5,–,–,–,Active,Active,Active,Active
CC1=CC2CNC(=O)/C=C/[C@@H](C)[C@@H](C(C)C)OC(=O)C3=CCCN3C(=O)c3coc(n3)CC(=O)C[C@H](O)C1C1C(=O)NC(=O)C21 (stereo not given in full),–,16.4,> 100,–,–,–,inactive,inactive,inactive,inactive
CC1=C\[C@@H](O)C[C@@H](O)Cc2nc(co2)C(=O)N2CCC=C2C(=O)O[C@H](C(C)C)[C@H](C)/C=C/C(=O)NC\C=C\1,–,5.28,21.7,–,–,–,Active,Active,Active,Active
